PubChem BioAssay (NCI)
Several values for one entry are separate records, joined by “and”; a condition that tells them apart may be missing. Equal values may be shown once.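 Values below derive from 48-hour exposures of cells grown in 96-well plates, with endpoints linearly interpolated between the two concentrations bracketing the appropriate inhibition level. At the GI50, growth is halved. Definition used: TGI = concentration required for complete inhibition of growth.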

The compounds below were run on MDA-MB-468 breast (assay: DTP human tumour cell line panel, 48 h).

Compound	GI50	TGI
Cc1cc(N(CCCl)CCCl)ccc1/C=N\NC(=O)c1cccnc1	1.46 µM	5.41 µM
O=C(Nc1cccc(C(F)(F)F)c1)Nc1cc(S(=O)(=O)NC2CC2)ccc1-c1ccsc1	3.1 µM	13.8 µM
Cn1c(=O)c(Oc2ccc(F)cc2F)cc2cnc(NC3CCC(O)CC3)nc21 (centres undefined)	> 25 µM	> 25 µM
COc1cc2c(cc1OCCCN1CCN(CCCn3c4ccccc4c4ccccc43)CC1)N=C[C@@H]1CCCN1C2=O	0.0238 µM	0.0677 µM
Nc1ccc(N)c2c1C(=O)c1cccc([N+](=O)[O-])c1C2=O	3.41 µM	> 56.8 µM
O=C(NCc1cccnc1)c1ccc([N+](=O)[O-])o1	5.31 µM	> 29 µM
COc1cc2nccc(Oc3ccc(NC(=O)C4(C(=O)Nc5ccc(F)cc5)CC4)cc3)c2cc1OC	> 10 µM and 4.35 µM	> 10 µM and 64.5 µM
CC[C@@H](CO)Nc1ccc2ncc(C#Cc3cncc(C(=O)Nc4ccc(CN5CCN(C)CC5)c(C(F)(F)F)c4)c3)n2n1	0.0779 µM	0.194 µM
CCc1c[nH]c2ncnc(N3CC[C@](N)(CNC(=O)c4ccc(F)cc4F)C3)c12	0.139 µM	2.23 µM
c1csc(-c2[nH]nc3c2CCc2ccccc2-3)c1	0.175 µM	0.494 µM
Cc1c(-c2ccc(N3CCc4cccc(C(=O)Nc5nc6ccccc6s5)c4C3)nc2C(=O)O)cnn1CC12CC3CC(CC(C3)C1)C2	6.58 µM	26.5 µM
COc1cc(/C=C/C(=O)c2c(-c3ccc(Cl)cc3)nc3sc(C)nn23)cc(OC)c1OC	6.47 µM	> 100 µM
COc1cc(/C=N/n2cnc3oc(-c4ccccc4)cc3c2=N)cc(CN2CCCCC2)c1O	1.8 µM	3.65 µM
O=C(c1ccccc1)c1ccc(N2C(=O)C3C4c5ccccc5C(/C=C/C(=O)c5ccccn5)(c5ccccc54)C3C2=O)cc1 (centres undefined)	2.39 µM	6.99 µM
CC(=O)Nc1ccc(C(=O)COc2cccc(/C=C3\CCc4ccccc4C3=O)c2)cc1	3.63 µM	> 100 µM
CC(=O)OC1CCC2(C)C(=CCC3C4CC(CN5CC5)C(=O)C4(C)CCC32)C1 (centres undefined)	1.68 µM	4.49 µM
CS(=O)(=O)Nc1ccc(Nc2c3ccccc3nc3cc(Cl)ccc23)cc1	1.99 µM	9.88 µM
O=C(COC(=O)[C@H](C[Se][Se]C[C@H](NC(=O)c1ccc(Br)cc1F)C(=O)OCC(=O)c1ccc(F)cc1)NC(=O)c1ccc(Br)cc1F)c1ccc(F)cc1	0.58 µM	1.68 µM
COc1ccc(Cl)cc1Nc1nc(C(F)(F)F)ccc1C(=O)N/N=C/c1ccc(Cl)cc1	3.96 µM	> 100 µM

Compound	GI50	TGI
C/C(=N\NC(=O)c1ccncc1)c1ccccc1O	2.04 µM	9.06 µM
C/C=C\C(=O)O[C@@H]1CC2O[C@@H]3C=C(C)C(=O)C[C@]3(C)[C@]1(C)[C@]21CO1	0.567 µM	2.13 µM
CN(C)C(=O)c1cc2cnc(Nc3ccc(N4CCNCC4)cn3)nc2n1C1CCCC1	13.5 µM	37.6 µM
OCCn1c(-c2ccncc2)c(-c2ccc(F)cc2)c2ncccc21	> 25 µM	> 25 µM
COc1ccc(S(=O)(=O)NCCCNc2nccc(-c3c(-c4ccc(F)cc4)nc4sccn34)n2)cc1	4.3 µM	> 100 µM
O=C1COc2c(CCNCCN(C(=O)CCNCCc3ccc(Cl)c(Cl)c3)C3CCCCC3)ccc(O)c2N1	2.77 µM	9.42 µM
CCn1c(SC)nnc1-c1cc2c([nH]c3ccccc32)c(-c2cccc(O)c2)n1	0.598 µM	8.22 µM
CCNc1nc(-c2ccc(Cl)c(OC)c2)c(-c2ccnc(NCCNS(=O)(=O)c3ccc(Cl)cc3)n2)s1	1.96 µM	5.61 µM
CCC(=C(c1ccc(OCCN(CC)CC)cc1)c1ccc(OCCN(CC)CC)cc1)c1ccc(Cl)cc1	0.535 µM	1.05 µM
O=C1C(=O)c2c(ccc3ccccc23)-c2ccccc21	1.56 µM	3.26 µM
O=C(Nc1cccc(C(F)(F)F)c1)Nc1ccc(OCc2nnc(-c3ccccc3)o2)c(F)c1	2.57 µM	13.9 µM
Cc1cccc(Cc2cnc(NC(=O)CCCOc3ccc(Cl)cc3)s2)c1	1.74 µM	> 100 µM
Oc1ccc(/C=N/Nc2nnc(N/N=C/c3ccc(O)cc3O)c3ccccc23)c(O)c1	0.355 µM	1.77 µM
CN1CCN(Cc2ccc(NC(=O)c3cncc(C#Cc4cnc5ccc(NCCCO)nn45)c3)cc2C(F)(F)F)CC1	0.087 µM	0.228 µM
COc1ccc(C[C@H](N)C(=O)N[C@@H]2[C@@H](CO)OC(n3cnc4c(N(C)C)ncnc43)[C@@H]2O)cc1 (some centres undefined)	0.134 µM	0.678 µM
CN1CCN(Cc2ccc(NC(=O)c3cncc(C#Cc4cnc5cccnn45)c3)cc2C(F)(F)F)CC1	1.97 µM	8.22 µM
Fc1ccc(-c2cc3nc(C(Cl)Cl)nc(-c4ccc(F)cc4)n3n2)cc1	0.242 µM	1.08 µM
COc1cc(-c2nn(-c3cccc(NC(=O)c4cccc(C(F)(F)F)c4)c3)cc2-c2ccncc2)ccc1Cl	1.32 µM	4.56 µM
